# Reference: patent publication US11905281B2 (Amgen Inc., priority 2017, dated 2024)
# Key:
# [1] = target: T1, GDP-bound KRAS protein (aa 1-169), containing both G12C and C118A amino acid substitutions (Homo sapiens, UniProt P01116, C118A/G12C); assay: Coupled Nucleotide Exchange Assay (Table 15 conditions: 2 hours pre-incubation); type: biochemical; conditions: 2 hours compound pre-incubation (Table 15 conditions)
# Procedure: (§1) For compounds in Table 15, the following assay conditions were employed:
# Following compound pre-incubation, purified SOS protein (aa 564-1049) and GTP (Roche 10106399001) were added to the assay wells and incubated for an additional hour. […] The assay plates were then read on a PerkinElmer EnVision Multilabel Reader, using AlphaScreen® technology, and data were analyzed using a 4-parameter logistic model to calculate IC50 values.
# [2] = test system: Phosphorylation of ERK1/2 in MIA PaCa-2 cells; assay: Phospho-ERK1/2 MSD Assay, MIA PaCa-2 (Table 15 conditions: 4 hours compound treatment); type: cell-based; conditions: EGF stimulation, read-out: p-ERK IC50 (MIA PaCa-2)
# Procedure: as §1
# (§2) Phospho-ERK1/2 MSD Assay: MIA PaCa-2 (ATCC® CRL-1420™) and A549 (ATCC® CCL-185™) cells were cultured in RPMI 1640 Medium (ThermoFisher Scientific 11875093) containing 10% fetal bovine serum (ThermoFisher Scientific 16000044) and 1× penicillin-streptomycin-glutamine (ThermoFisher Scientific 10378016). Sixteen hours prior to compound treatment, MIA PaCa-2 or A549 cells were seeded in 96-well cell culture plates at a density of 25,000 cells/well and incubated at 37° C., 5% CO2. A compound dose-response titration was diluted in growth media, added to appropriate wells of a cell culture plate, and then incubated at 37° C., 5% CO2 for 4 hours. Following compound treatment, cells were stimulated with 10 ng/mL EGF (Roche 11376454001) for 10 min, washed with ice-cold Dulbecco's phosphate-buffered saline, no Ca^2+ or Mg^2+ (ThermoFisher Scientific 14190144), and then lysed in RIP A buffer (50 mM Tris-HCl pH 7.5, 1% Igepal, 0.5% sodium deoxycholate, 150 mM NaCl, and 0.5% sodium dodecyl sulfate) containing protease inhibitors (Roche 4693132001) and phosphatase inhibitors (Roche 4906837001). Cell lysates were stored frozen at −80° C. overnight. Phosphorylation of ERK1/2 in compound-treated lysates was assayed using Phospho-ERK1/2 Whole Cell Lysate kits (Meso Scale Discovery K151DWD) according to the manufacturer's protocol. Assay plates were read on a Meso Scale Discovery Sector Imager 6000, and data were analyzed using a 4-parameter logistic model to calculate IC50 values.
# [3] = test system: Phosphorylation of ERK1/2 in A549 cells; assay: Phospho-ERK1/2 MSD Assay, A549 (Table 15 conditions: 4 hours compound treatment); type: cell-based; conditions: Homo sapiens, A549, 4 h, EGF stimulation, read-out: p-ERK IC50 (A549)
# Procedure: as §1, §2
# [4] = target: T1, GDP-bound KRAS protein (aa 1-169), containing both G12C and C118A amino acid substitutions; assay: Coupled Nucleotide Exchange Assay (Table 16 conditions: 5 min pre-incubation); type: biochemical; conditions: 5 min compound pre-incubation; SOS-mediated nucleotide exchange, AlphaScreen
# Procedure: (§3) For compounds in Table 16, the following assay conditions were employed:
# The assay plates were then read on a PerkinElmer EnVision Multilabel Reader, using AlphaScreen® technology, and data were analyzed using a 4-parameter logistic model to calculate IC50 values.
# [5] = test system: Phosphorylation of ERK1/2 in MIA PaCa-2 cells; assay: Phospho-ERK1/2 MSD Assay, MIA PaCa-2 (Table 16 conditions: 2 hours compound treatment); type: cell-based; conditions: MIA PaCa-2 cells, 10 ng/mL EGF for 10 min, read-out: p-ERK IC50 (MIA PaCa-2)
# Procedure: as §3
# Sixteen hours prior to compound treatment, MIA PaCa-2 or A549 cells were seeded in 96-well cell culture plates at a density of 25,000 cells/well and incubated at 37° C., 5% CO2. A compound dose-response titration was diluted in growth media, added to appropriate wells of a cell culture plate, and then incubated at 37° C., 5% CO2 for 2 hours. […] Phosphorylation of ERK1/2 in compound-treated lysates was assayed using Phospho-ERK1/2 Whole Cell Lysate kits (Meso Scale Discovery K151DWD) according to the manufacturer's protocol. Assay plates were read on a Meso Scale Discovery Sector Imager 6000, and data were analyzed using a 4-parameter logistic model to calculate IC50 values.
# T1 sequence (P01116 1-169 isoform P01116-2 G12C/C118A): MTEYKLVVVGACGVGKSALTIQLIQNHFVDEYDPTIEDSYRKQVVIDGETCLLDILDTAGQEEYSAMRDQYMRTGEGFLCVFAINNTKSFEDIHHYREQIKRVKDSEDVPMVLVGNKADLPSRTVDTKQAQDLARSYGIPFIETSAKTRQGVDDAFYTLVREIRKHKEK
SMILES,Coupled exchange IC50 [1],IC50 [4],IC50 [5],also measured
"C=CC(=O)N1CCN(c2nc(=O)n(-c3ccccc3C(C)C)c3cc(-c4c(O)cccc4F)c(Cl)cc23)[C@@H](C)C1 [Example 8-3-1, 6-chloro-7-(2-fluoro-6-hydroxy-phenyl)-4-((2S)-2-methyl-4-(2-propenoyl)-1-piperazinyl)-1-(2-(2-propanyl)-phenyl)-2(1H)-quinazolinone]",282 nM,–,–,–
"C=CC(=O)N1CCN(c2nc(=O)n(-c3ccncc3C3CC3)c3cc(-c4c(O)cccc4F)c(Cl)cc23)[C@@H](C)C1 (single isomer, unassigned) [Example 9-7-2]",–,–,–,IC50 [2]: 232 nM
"C=CC(=O)N1CCN(c2nc(=O)n(-c3ccccc3C(C)C)c3cc(-c4c(O)cccc4F)c(Cl)cc23)[C@@H](C)C1 (single isomer, unassigned) [Example 8-3-2]",340 nM,–,–,–
"C=C(CBr)C(=O)N1CCN(c2snc3c(F)c(-c4cc(O)cc5ccccc45)c(Cl)cc23)CC1 (single isomer, unassigned) [Example 18-2, 2-(bromomethyl)-1-(4-(5-chloro-7-fluoro-6-(3-hydroxy-1-naphthalenyl)-2,1-benzothiazol-3-yl)-1-piperazinyl)-2-propen-1-one]",760 nM,–,–,–
"C=CC(=O)N1CCN(c2snc3c(F)c(-c4cc(O)cc5ccccc45)c(Cl)cc23)[C@@H](C)C1 [Example 1-19-1, 1-((3S)-4-(5-chloro-7-fluoro-6-(3-hydroxy-1-naphthalenyl)-2,1-benzothiazol-3-yl)-3-methyl-1-piperazinyl)-2-propen-1-one]",115 nM,–,–,–
"C=CC(=O)N1CCN(c2snc3c(F)c(-c4cc(O)cc5ccccc45)c(Cl)cc23)C(CF)C1 (racemic) [Example 7-2, 1-(4-(5-chloro-7-fluoro-6-(3-hydroxy-1-naphthalenyl)-2,1-benzothiazol-3-yl)-3-(fluoromethyl)-1-piperazinyl)-2-propen-1-one]",180 nM,–,–,IC50 [3]: > 100000 nM
"C=CC(=O)N1CCN(c2snc3c(F)c(-c4cc(O)cc5ccccc45)c(Cl)cc23)CC1CO (racemic) [Example 1-16, 1-(4-(5-chloro-7-fluoro-6-(3-hydroxy-1-naphthalenyl)-2,1-benzothiazol-3-yl)-2-(hydroxymethyl)-1-piperazinyl)-2-propen-1-one]",492 nM,–,–,IC50 [3]: > 100000 nM
"C=CC(=O)N1CCN(c2snc3c(F)c(-c4c(C)ccc5[nH]ncc45)c(Cl)cc23)C(C(F)F)C1 (racemic) [Example 2-8, 1-(4-(5-chloro-7-fluoro-6-(5-methyl-1H-indazol-4-yl)-2,1-benzothiazol-3-yl)-3-(difluoromethyl)-1-piperazinyl)-2-propen-1-one]",361 nM,–,–,IC50 [3]: > 100000 nM
"C=C(CO)C(=O)N1CCN(c2snc3c(F)c(-c4cc(O)cc5ccccc45)c(Cl)cc23)CC1 (single isomer, unassigned) [Example 18-3, 1-(4-(5-chloro-7-fluoro-6-(3-hydroxy-1-naphthalenyl)-2,1-benzothiazol-3-yl)-1-piperazinyl)-2-(hydroxymethyl)-2-propen-1-one]",24600 nM,–,–,–
"C=CC(=O)N1CCN(c2nc(=O)n(-c3c(C)ccnc3CC)c3nc(-c4ccccc4F)c(Cl)cc23)[C@@H](C)C1 [Example 46-2, 6-chloro-1-(2-ethyl-4-methyl-3-pyridinyl)-7-(2-fluorophenyl)-4-((2S)-2-methyl-4-(2-propenoyl)-1-piperazinyl)pyrido-[2,3-d]pyrimidin-2(1H)-one]",–,971 nM,552 nM,–
"C=CC(=O)N1CCN(c2nc(=O)n(-c3c(C)cccc3C(C)C)c3nc(-c4c(O)cccc4F)c(Cl)cc23)[C@@H](C)C1 [Example 39-2, 6-chloro-7-(2-fluoro-6-hydroxyphenyl)-1-(2-methyl-6-(2-propanyl)phenyl)-4-((2S)-2-methyl-4-(2-propenoyl)-1-piperazinyl)pyrido-[2,3-d]pyrimidin-2(1H)-one]",–,222 nM,195 nM,–
"C=CC(=O)N1CCN(c2nc(=O)n(-c3c(C)ccnc3C3CC3)c3nc(-c4c(O)cccc4F)c(F)cc23)[C@@H](C)C1 [Example 42, 1-(2-Cyclopropyl-4-methyl-3-pyridinyl)-6-fluoro-7-(2-fluoro-6-hydroxyphenyl)-4-((2S)-2-methyl-4-(2-propenoyl)-1-piperazinyl)pyrido[2,3-d]pyrimidin-2(1H)-one]",–,335 nM,362 nM,–
"C=CC(=O)N1CCN(c2nc(=O)n(-c3ccccc3C(C)C)c3cc(-c4c(O)cccc4F)c(Cl)cc23)[C@@H](C)C1 [Example 8-3, 6-chloro-7-(2-fluoro-6-hydroxyphenyl)-4-((2S)-2-methyl-4-(2-propenoyl)-1-piperazinyl)-1-(2-(2-propanyl)phenyl)-2(1H)-quinazolinone]",283 nM,–,–,–
"C=CC(=O)N1CCN(c2nc(=O)n(-c3ccccc3C(C)(C)C)c3nc(-c4c(O)cccc4F)c(Cl)cc23)[C@@H](C)C1 [Example 49, 6-Chloro-7-(2-fluoro-6-hydroxyphenyl)-1-(2-(2-methyl-2-propanyl)phenyl)-4-((2S)-2-methyl-4-(2-propenoyl)-1-piperazinyl)pyrido[2,3-d]pyrimidin-2(1H)-one]",–,177 nM,154 nM,–
"C=CC(=O)N1CCN(c2nc(=O)n(-c3c(C)ccnc3C(C)C)c3nc(-c4ccccc4F)c(Cl)cc23)[C@@H](C)C1 [Example 40, 6-Chloro-7-(2-fluorophenyl)-1-(4-methyl-2-(2-propanyl)-3-pyridinyl)-4-((2S)-2-methyl-4-(2-propenoyl)-1-piperazinyl)pyrido[2,3-d]pyrimidin-2(1H)-one]",–,63 nM,29 nM,–
"C=CC(=O)N1CCN(c2nnc(-c3ccccc3C(C)C)c3cc(-c4c(O)cccc4F)c(C)nc23)CC1 [Example 27, 1-(4-(3-(2-Fluoro-6-hydroxyphenyl)-2-methyl-5-(2-(2-propanyl)phenyl)pyrido[2,3-d]pyridazin-8-yl)-1-piperazinyl)-2-propen-1-one]",1280 nM,–,–,–
"C=CC(=O)N1CCN(c2nc(=O)n(-c3c(C)ccnc3C(C)C)c3nc(-c4ccccc4F)c(Cl)cc23)[C@@H](C)C1 [Example 40-2, 6-chloro-7-(2-fluoro-phenyl)-1-(4-methyl-2-(2-propanyl)-3-pyridinyl)-4-((2S)-2-methyl-4-(2-propenoyl)-1-piperazinyl)pyrido-[2,3-d]pyrimidin-2(1H)-one]",–,597 nM,321 nM,–
"C=CC(=O)N1CCN(c2snc3nc(-c4cc(OC)cc5ccccc45)c(Cl)cc23)C(C)C1 (racemic) [Example 2-4, 1-(4-(5-chloro-6-(3-methoxy-1-naphthalenyl)[1,2]thiazolo[3,4-b]pyridin-3-yl)-3-methyl-1-piperazinyl)-2-propen-1-one]",>250000 nM,–,–,–
"C=CC(=O)N1CCN(c2nc(=O)n(-c3c(C)cnn3C(C)C)c3nc(-c4ccccc4F)c(Cl)cc23)[C@@H](C)C1 (single isomer, unassigned) [Example 53-2]",–,320 nM,229 nM,–
"C=CC(=O)N1CCN(c2nc(=O)n(-c3c(C)cccc3C(C)C)c3nc(-c4c(O)cccc4F)c(Cl)cc23)[C@@H](C)C1 [Example 39-1, 6-chloro-7-(2-fluoro-6-hydroxyphenyl)-1-(2-methyl-6-(2-propanyl)phenyl)-4-((2S)-2-methyl-4-(2-propenoyl)-1-piperazinyl)pyrido-[2,3-d]pyrimidin-2(1H)-one]",–,25 nM,28 nM,–
